Laboratory results reported in patent USRE40862E1, “Gossypolone for the treatment of cancer” (priority 1990, dated 2009).
Where “and” joins values, the source holds several entries; their conditions need not be identical. Equal entries are not always repeated. Entries after “also recorded” stand apart in the source; their conditions may differ.

Experiments:
SW-13 cells = assay: In vitro gossypol treatment: SW-13 cell proliferation; assay type: cell-based, human; settings: 5 and 50 uM gossypol, prolonged exposure (1-6 days)
Description: SW-13 cells were seeded (1×10^4 cells) into 25 cm^2 tissue culture flasks in Dulbecco's minimal Eagle's medium supplemented with fetal calf serum (10%), 100 ug/ml streptomycin, 100 units/ml penicillin, and 2 mM glutamine.
Sw-13 cells were seeded in a 25-cm^2 tissue culture flask (Costar, Cambridge, Mass.) at densities of 1×10^4 cells/5 ml of Dulbecco's minimal Eagle's medium, supplemented with 10% fetal calf serum, 100 ug/ml streptomycin, 100 units/ml penicillin, and 2 mM glutamine. The cells were grown in a humidified, 37° C. incubator with a 5% CO2/95% air atmosphere. A gossypol stock solution in absolute ethanol was added to the culture medium to yield final concentrations of 0, 0.5, 5, and 50 uM gossypol with a 0.1% final ethanol concentration. After 1, 2, 4, or 6 days of incubation, the culture medium containing a few floating cells was removed. Adherent cells were typsinized (0.1% trypsin, w/v) and counted using a hemocytometer. Cell viability was determined by trypan blue exclusion.

[1] = system: SW-13 human adrenocortical carcinoma; assay: Gossypol in SW-13 tumor bearing nude mice (preexisting tumors); assay type: in vivo; settings: for Mean tumor size (mean ± SE): length×width; for Total deaths / Prevalence of tumor: preexisting tumors
Description: Nude mice (Charles River, Kingston, N.Y.) weighing 20-35 g were caged in a temperature-controlled (26-28° C.), 12 h/12 h light/dark animal room. A microporous cage bonnet served as an effective protective barrier between the animal and the outside environment. In addition, the room was continuously purged with […]. The cages, feeders, and water bottles were designed to make standard mouse chow and water readily available while minimizing the opportunity for the transfer of communicable pathogens.
Another experiment was designed wherein 48 adult male nude mice weighing 25-35 g were injected s.c. with 2×10^6 SW-13 cells. One month later, the animals were divided into two groups of 24. There were 7 nude mice without visible tumors in each group. The gossypol treated animals received 30 mg gossypol acetic acid/kg body weight/day whereas control animals were fed an equal volume of carrier. Body weigths and tumor sizes (lengths×width, cm^2) were measured weekly. During the 12th week of treatment, 5 control animals died. Since it appeared unlikely that the remaining control animals would survive for another week, they were then sacrificed. Autopsies were performed on all animals including those that died during the study period. Internal organs were examined for the presence of gross tumor.
Data are expressed as the mean±SD unless otherwise indicated. Statistical comparisons were made using an unpaired Student's t test.
In this experiment, nude mice had been given s.c. injections of SW-13 adrenocortical carcinoma 1 month prior to initiation of the treatment with either gossypol or carrier.

[2] = mouse; Rao et al. (1985); cited from earlier work
cancers = settings: cited from earlier work
clinical = settings: human, in vivo
Description: (§1) Gossypol acetic acid, 10 mg compressed tablet, was given orally at a dose of 20 mg/d which was increased by 10 mg/d every three days to a dose of 50 mg/d.

[3] = system: metastatic adrenocortical carcinoma; assay: Phase 1 clinical trial of oral gossypol for adrenocortical cancer
Description: as §1

adrenocortical carcinoma = assay: Previous therapy of the patient with adrenocortical carcinoma; assay type: in vivo, human; settings: person, hepatic metastases, before gossypol
[4] = patient 26, lung, liver, dose 70, 3 weeks
[5] = patient 27, abdomen, pelvis, dose 50, 6 weeks
[6] = patient 34, abdomen, liver, dose 40-50, 12 weeks
[7] = patient 52, abdomen, dose 40, 6 weeks
[8] = person, after three weeks, gossypol acetic acid tablets 20 to 50 mg/d oral

For `Cc1cc2c(C(C)C)c(O)c(O)c(C=O)c2c(O)c1-c1c(C)cc2c(C(C)C)c(O)c(O)c(C=O)c2c1O` [Gossypol, gossypol], the “effect on proliferation of SW-13 cells” value (SW-13 cells) was “inhibited cell proliferation”, the “total tumor burden (cumulative surface area), control relative to gossypol group” value ([1]; 12th week, FIG. 2) was “twice” and the “effect on body weights” value ([1]; 12 weeks of gossypol treatment) was “no significant effect”. The “body weight at the end of the study period (mean ± SD)” value ([1]; after 12 weeks, 30 mg/kg/day oral) was 30.9 ± 3.6 g, the “number of deaths in the gossypol-treated group” value ([1]; during 12 weeks of treatment, group of 24, 10 deaths in control group) was “two” and the “Mean tumor size (mean ± SE)” value ([1]; week 0, 30 mg/kg/day oral) was 0.08 ± 0.02 cm^2. For the same compound, the Total deaths ([1]; week 0, 30 mg/kg/day oral) was 0%, the Prevalence of tumor ([1]; week 0, 30 mg/kg/day oral, 30 mg/kg/day) was 72% and the Prevalence of tumor ([1]; week 0, 30 mg/kg/day oral, listed as gossypol, 30 mg/kg/day) was 71%. The “Mean tumor size (mean ± SE)” value ([1]; week 1, 30 mg/kg/day oral) was 0.07 ± 0.02 cm^2, the Prevalence of tumor ([1]; week 1, 30 mg/kg/day oral) was 63% and the Total deaths ([1]; week 1, 30 mg/kg/day oral) was 0%. The “Mean tumor size (mean ± SE)” value ([1]; week 2, 30 mg/kg/day oral) was 0.12 ± 0.04^a cm^2, the Prevalence of tumor ([1]; week 2, 30 mg/kg/day oral) was 50% and the Total deaths ([1]; week 2, 30 mg/kg/day oral) was 0%. The “Mean tumor size (mean ± SE)” value ([1]; week 3, 30 mg/kg/day oral) was 0.15 ± 0.05^a cm^2, the Prevalence of tumor ([1]; week 3, 30 mg/kg/day oral) was 54% and the Total deaths ([1]; week 3, 30 mg/kg/day oral) was 0%. The “Mean tumor size (mean ± SE)” value ([1]; week 4, 30 mg/kg/day oral) was 0.20 ± 0.07^a cm^2, the Prevalence of tumor ([1]; week 4, 30 mg/kg/day oral) was 50% and the Total deaths ([1]; week 4, 30 mg/kg/day oral) was 0%. For the same compound, the “Mean tumor size (mean ± SE)” value ([1]; week 5, 30 mg/kg/day oral) was 0.28 ± 0.08^a cm^2, the Prevalence of tumor ([1]; week 5, 30 mg/kg/day oral) was 58% and the Total deaths ([1]; week 5, 30 mg/kg/day oral) was 0%. For the same compound, the “Mean tumor size (mean ± SE)” value ([1]; week 6, 30 mg/kg/day oral) was 0.32 ± 0.10^a cm^2, the Prevalence of tumor ([1]; week 6, 30 mg/kg/day oral) was 58% and the Total deaths ([1]; week 6, 30 mg/kg/day oral) was 0%. For the same compound, the “Mean tumor size (mean ± SE)” value ([1]; week 7, 30 mg/kg/day oral) was 0.38 ± 0.12^a cm^2, the Prevalence of tumor ([1]; week 7, 30 mg/kg/day oral) was 58% and the Total deaths ([1]; week 7, 30 mg/kg/day oral) was 0%. For the same compound, the “Mean tumor size (mean ± SE)” value ([1]; week 8, 30 mg/kg/day oral) was 0.45 ± 0.14^a cm^2, the Prevalence of tumor ([1]; week 8, 30 mg/kg/day oral) was 58% and the Total deaths ([1]; week 8, 30 mg/kg/day oral) was 0%. The “Mean tumor size (mean ± SE)” value ([1]; week 9, 30 mg/kg/day oral) was 0.50 ± 0.15^a cm^2, the Prevalence of tumor ([1]; week 9, 30 mg/kg/day oral) was 54% and the Total deaths ([1]; week 9, 30 mg/kg/day oral) was 0%. For the same compound, the “Mean tumor size (mean ± SE)” value ([1]; week 10, 30 mg/kg/day oral) was 0.59 ± 0.18^a cm^2, the Prevalence of tumor ([1]; week 10, 30 mg/kg/day oral) was 54% and the Total deaths ([1]; week 10, 30 mg/kg/day oral) was 0%. For the same compound, the “Mean tumor size (mean ± SE)” value ([1]; week 11, 30 mg/kg/day oral) was 0.68 ± 0.21^a cm^2, the Prevalence of tumor ([1]; week 11, 30 mg/kg/day oral) was 54% and the Total deaths ([1]; week 11, 30 mg/kg/day oral) was 0%. For the same compound, the “Mean tumor size (mean ± SE)” value ([1]; week 12, 30 mg/kg/day oral) was 0.81 ± 0.25 (n = 22) cm^2, the Prevalence of tumor ([1]; week 12, 30 mg/kg/day oral) was 54% and the Total deaths ([1]; week 12, 30 mg/kg/day oral) was 8.3%. For the same compound, the “higher doses shown to be lethal” value [2] was 0.8 mg/mouse and 1.6 mg/mouse, the “anti-tumor effective dose in animals” value (cancers) was roughly 10 mg/kg/day and the concentration at 6 weeks (clinical; female, oral, 40 mg/d) was 4.44 ng/mL. It also gave a concentration at 3 weeks (clinical; male) of 10.2 ng/mL, a concentration at 12 weeks (clinical; male, oral) of 2.91 ng/mL and a concentration at 6 weeks (clinical; male, oral, 50 mg/d) of 2.29 ng/mL. For the same compound, the “tumor responses among the five patients” value ([3]; five patients of Table 3) was “two exhibited partial tumor responses, one has stable disease, and two showed tumor progression”, the “dose above which toxicity begins to occur in humans” value ([3]; humans) was 1 to 2 mg/kg/day and the “dose at which the anti-tumor effect occurs in humans” value ([3]; humans, approximately one tenth of dose effective in animals) was roughly 1 mg/kg/day. For the same compound, the “side effects in treatment of human cancers” value ([3]; humans, compared to conventional therapies) was “mild fatigue, muscle tremor, dry mouth, dry skin, and occasional nausea”, the Response [3, 4] was “Pro-” and the “Side Effects” value [3, 4] was “Xerostomia; also recorded: Nausea; also recorded: Trans-”. The Response [3, 5] was “Pro-”, the “Side Effects” value [3, 5] was “Xerostomia; also recorded: Fatigue” and the Response [3, 6] was “Stabili-”. For the same compound, the “Side Effects” value [3, 6] was “Xerostomia; also recorded: Fatigue; also recorded: Nausea”, the Response [3, 7] was “Partial” and the “Side Effects” value [3, 7] was “Xerostomia; also recorded: Fatigue; also recorded: Nausea”. For the same compound, the “side effects experienced during gossypol treatment” value ([3]; person, 20 to 50 mg/d oral) was “fatigue, xerostomia, tremor, and trasnminitis”, the clinical symptoms ([3]; person, after three weeks of treatment) was “improvement in abdominal pain, ascites, and pulmonary function” and the “decrease in the size of the hepatic metastases on CT scans” value [3, 8] was greater than 50%. For the same compound, the “pulmonary metastases on CT scans” value [3, 8] was “complete resolution”.
With `Cc1ccc(C(=O)Nc2ccc(S(=O)(=O)O)c3cc(S(=O)(=O)O)cc(S(=O)(=O)O)c23)cc1NC(=O)c1cccc(NC(=O)Nc2cccc(C(=O)Nc3cc(C(=O)Nc4ccc(S(=O)(=O)O)c5cc(S(=O)(=O)O)cc(S(=O)(=O)O)c45)ccc3C)c2)c1` [Suramin] the “tumor course under treatment” value (adrenocortical carcinoma) was “progressed”.
